PMC3088537, “Production, purification, sequencing and activity spectra of mutacins D-123.1 and F-59.1” (BMC Microbiology, 2011)
Marks after values point to notes of the source that are not given here. Bridge positions count the residues as written; N and C are the ends. Ends that are not written are not given here.

Tests used:
Streptococcus salivarius = assay: Inhibitory spectrum, critical dilution with spot test; assay type: cell-based; details: purified mutacin, 5 μL spotted on soft agar lawn on TSAYE; reciprocal of highest dilution showing inhibition zone
Method: (§1) Streptococcus mutans 59.1 and 123.1 produce mutacins F-59.1 and D-123.1 respectively. Micrococcus luteus ATCC 272 (ATCC, Manassas, VA, USA) was used as the indicator strain for the mutacin activity assays. All bacteria were routinely grown aerobically at 37°C in TSBYE made of TSB (Difco laboratories, Detroit, MI, USA) supplemented with 0.3% yeast extract (Becton Dickinson & Co., Cockeysville, MD, USA) or on TSAYE plates made of TSA (Difco) enriched with 0.3% yeast extract. Lactobacillus salivarius strain (provided by Sylvain Moineau, Université Laval, Québec, QC, Canada) was cultivated aerobically at 30°C in MRS medium (Oxoid, Nepean, ON, Canada). Other bacterial strains used for the inhibitory spectra determination are described in Mota-Meira et al. and Morency et al.. Staphylococcus carnosus was obtained from the strain collection of the Department of Microbiology, Biochemistry and Bioinformatics (Université Laval).
(§2) Mutacin activity was determined by the spot test using Micrococcus luteus ATCC 272 as sensitive strain where two-fold dilutions were prepared in acidified (pH 2) peptone water (0.5%). Antibacterial activity spectra of purified mutacins was tested against a panel of bacterial strains using the critical dilution method combined with the spot test method as described previously. Briefly, overnight cultures of test strains in TSBYE were diluted in fresh broth before inoculating 5 mL of soft agar (0.75%) in order to obtain confluent lawns of growth on TSAYE plates. Five μL of purified mutacins, diluted in acidified (10 mM HCl) distilled water to promote solubility of the peptides, were deposited on the lawn and allowed to dry before appropriate incubation. Mutacin activity was expressed in AU/mL and corresponds to the reciprocal of the highest dilution showing a noticeable inhibition zone on the lawn.

[1] = system: Enterococcus faecium ATCC 19434; assay: as above; assay type: cell-based; details: purified mutacin, 5 μL spotted on soft agar lawn on TSAYE; reciprocal of highest dilution showing inhibition zone
Method: as §1, §2

[2] = system: Enterococcus faecalis ATCC 27235; assay: as above; assay type: cell-based; details: purified mutacin, 5 μL spotted on soft agar lawn on TSAYE; reciprocal of highest dilution showing inhibition zone
Method: as §1, §2

Bacillus cereus ATCC 2 = assay: as above; assay type: cell-based; details: purified mutacin, 5 μL spotted on soft agar lawn on TSAYE; reciprocal of highest dilution showing inhibition zone
Method: as §1, §2

[3] = system: Streptococcus pyogenes ATCC 10389; assay: as above; assay type: cell-based; details: purified mutacin, 5 μL spotted on soft agar lawn on TSAYE; reciprocal of highest dilution showing inhibition zone
Method: as §1, §2

[4] = system: Streptococcus suis serotype 2; assay: as above; assay type: cell-based; details: purified mutacin, 5 μL spotted on soft agar lawn on TSAYE; reciprocal of highest dilution showing inhibition zone
Method: as §1, §2

[5] = system: Staphylococcus aureus ATCC 6538; assay: as above; assay type: cell-based; details: purified mutacin, 5 μL spotted on soft agar lawn on TSAYE; reciprocal of highest dilution showing inhibition zone
Method: as §1, §2

[6] = system: Lactococcus lactis ATCC 11454; assay: as above; assay type: cell-based; details: purified mutacin, 5 μL spotted on soft agar lawn on TSAYE; reciprocal of highest dilution showing inhibition zone
Method: as §1, §2

[7] = system: Micrococcus luteus ATCC 272; assay: as above; assay type: cell-based; details: purified mutacin, 5 μL spotted on soft agar lawn on TSAYE; reciprocal of highest dilution showing inhibition zone
Method: as §1, §2

[8] = system: Listeria grayi ATCC 19120; assay: as above; assay type: cell-based; details: purified mutacin, 5 μL spotted on soft agar lawn on TSAYE; reciprocal of highest dilution showing inhibition zone
Method: as §1, §2

[9] = system: Pediococcus acidilactici UL5; assay: as above; assay type: cell-based; details: purified mutacin, 5 μL spotted on soft agar lawn on TSAYE; reciprocal of highest dilution showing inhibition zone
Method: as §1, §2

[10] = system: Lactobacillus salivarius SMQ 876; assay: as above; assay type: cell-based; details: purified mutacin, 5 μL spotted on soft agar lawn; reciprocal of highest dilution showing inhibition zone
Method: as §1, §2

[11] = system: Enterococcus hirae ATCC 8043; assay: as above; assay type: cell-based; details: purified mutacin, 5 μL spotted on soft agar lawn on TSAYE; reciprocal of highest dilution showing inhibition zone
Method: as §1, §2

[12] = system: Streptococcus sobrinus ATCC 27352; assay: as above; assay type: cell-based; details: purified mutacin, 5 μL spotted on soft agar lawn on TSAYE; reciprocal of highest dilution showing inhibition zone
Method: as §1, §2

[13] = system: Listeria murrayi ATCC 25420; assay: as above; assay type: cell-based; details: purified mutacin, 5 μL spotted on soft agar lawn on TSAYE; reciprocal of highest dilution showing inhibition zone
Method: as §1, §2

[14] = system: Bacillus subtilis ATCC 6051; assay: as above; assay type: cell-based; details: purified mutacin, 5 μL spotted on soft agar lawn on TSAYE; reciprocal of highest dilution showing inhibition zone
Method: as §1, §2

Staphylococcus carnosus = assay: as above; assay type: cell-based; details: purified mutacin, 5 μL spotted on soft agar lawn on TSAYE; reciprocal of highest dilution showing inhibition zone
Method: as §1, §2

Listeria ivanovii HPB 28 = assay: as above; assay type: cell-based; details: purified mutacin, 5 μL spotted on soft agar lawn on TSAYE; reciprocal of highest dilution showing inhibition zone
Method: as §1, §2

[15] = system: Listeria monocytogenes ATCC 15313; assay: as above; assay type: cell-based; details: purified mutacin, 5 μL spotted on soft agar lawn on TSAYE; reciprocal of highest dilution showing inhibition zone
Method: as §1, §2

[16] = system: Micrococcus luteus ATCC 272; assay: Mutacin activity assay (spot test) of preparations during production and purification; assay type: cell-based
Method: as §1
(§3) Purification of the two mutacins was achieved by two hydrophobic chromatography steps as previously described by replacing TFA with HCl (10 mM). Briefly, the active preparation was loaded on a Sep-Pak® Vac 35 cc (10 g) t-C18 Cartridge (Waters Corporation, Milford, MA, USA). Cartridges were first equilibrated with 500 mL of methanol followed by 500 mL of deionized distilled water. Antibacterial compounds were eluted with successive steps of 500 mL of water:methanol mixtures increasing the gradient of methanol by 10% from 0 to 100% in 10 mM HCl. This was carried out at a flow rate of 1 mL/min and UV detection at 214 nm. The final purification step was carried out by reverse phase chromatography (RP)-HPLC analysis (Beckman Gold Model, Coulter Canada Inc., Mississauga, ON, Canada) using an analytical C18 column (Luna 5 μ C18(2), 250 × 4.6 mm, 4 × 3.0 mm, Phenomenex, Torrance, CA, USA). Elution was carried out with solvent A (5% acetonitrile, 10 mM HCl) and solvent B (60% acetonitrile, 10 mM HCl) and recorded at 214 nm. The following program of elution was developed: 0 to 3 min, constant 100% A; 3 to 15 min, a linear gradient from 100% A to 100% B; 15 to 20 min, constant 100% B; 20 to 23 min, a linear gradient from 100% B to 100% A. A flow rate of 1 mL/min was used. The column was maintained at 39°C with a column heater. Active fractions were manually collected, subsequently dried in a Speed-Vac® concentrator (Model SC110A, Savant Instrument Inc. Farmingdale, NY, USA) and then kept at -20°C until processing. Protein concentration in active fractions was determined using the BioRad DC protein assay (BioRad, Mississauga, ON, Canada).
as §2

L. murrayi HPB 30 = assay: Inhibitory spectrum, critical dilution with spot test; assay type: cell-based, Listeria murrayi; details: purified mutacin, 5 μL spotted on soft agar lawn on TSAYE; reciprocal of highest dilution showing inhibition zone
Method: as §1
Mutacin activity was determined by the spot test using Micrococcus luteus ATCC 272 as sensitive strain where two-fold dilutions were prepared in acidified (pH 2) peptone water (0.5%). Antibacterial activity spectra of purified mutacins was tested against a panel of bacterial strains using the critical dilution method combined with the spot test method as described previously. […]

[17] = system: L. monocytogenes FRDC 88571; assay: as above; assay type: cell-based, Listeria monocytogenes; details: purified mutacin, 5 μL spotted on soft agar lawn on TSAYE; reciprocal of highest dilution showing inhibition zone
Method: as §1, §2

[18] = system: L. monocytogenes ATCC 700301 ScottA; assay: as above; assay type: cell-based, Listeria monocytogenes; details: purified mutacin, 5 μL spotted on soft agar lawn on TSAYE; reciprocal of highest dilution showing inhibition zone
Method: as §1, §2

[19] = system: L. monocytogenes ATCC 700302 ScottA; assay: as above; assay type: cell-based, Listeria monocytogenes; details: purified mutacin, 5 μL spotted on soft agar lawn on TSAYE; reciprocal of highest dilution showing inhibition zone
Method: as §1, §2

[20] = system: L. monocytogenes FRDC 1039; assay: as above; assay type: cell-based, Listeria monocytogenes; details: purified mutacin, 5 μL spotted on soft agar lawn on TSAYE; reciprocal of highest dilution showing inhibition zone
Method: as §1, §2

S. aureus ATCC 43300 = assay: as above; assay type: cell-based, Staphylococcus aureus; details: purified mutacin, 5 μL spotted on soft agar lawn on TSAYE; reciprocal of highest dilution showing inhibition zone
Method: as §1, §2

S. aureus ATCC 25923 = assay: as above; assay type: cell-based, Staphylococcus aureus; details: purified mutacin, 5 μL spotted on soft agar lawn on TSAYE; reciprocal of highest dilution showing inhibition zone
Method: as §1, §2

S. aureus R621 = assay: as above; assay type: cell-based, Staphylococcus aureus; details: purified mutacin, 5 μL spotted on soft agar lawn on TSAYE; reciprocal of highest dilution showing inhibition zone
Method: as §1, §2

[21] = Hydrophobic chromatography elution (Sep-Pak t-C18, methanol steps) as measure of hydrophobicity; assay type: physicochemical; details: Sep-Pak t-C18 cartridge, water:methanol steps of 10% from 0 to 100% in 10 mM HCl; used as indication of hydrophobicity
Method: as §3, with “The column was maintained at 39°C with a column heater. Active fractions were manually collected, subsequently dried in a Speed-Vac® concentrator (Model SC110A, Savant Instrument Inc. Farmingdale, NY, USA) and then kept at -20°C until processing.” left out

[22] = system: Micrococcus luteus ATCC 272; assay: Inhibitory effect of mutacin F-59.1 on viable count (time-kill); assay type: cell-based
Method: One milliliter of active preparation (1600 AU/mL) adjusted to pH 7.0 was filter sterilised then added to 10 mL of an early-log-phase culture of Micrococcus luteus ATCC 272 grown in TSBYE. Bacterial culture in TSBYE was used as a negative control. The viable count in CFU/mL was determined at intervals for up to 24 h for samples and control during incubation at 37°C by plating 100 μL of an appropriate dilution in peptone water (0.1%) on TSAYE incubated at 37°C at least 24 h.

KYYGNGVTCGKHSCSVDWSKATTNI (disulfide 9-14 (inferred)) [mutacin F-59.1, pediocin-like (class IIa) bacteriocin of 25 amino acids produced by Streptococcus mutans 59.1; UniProt P86386]
Activity of mutacin against Streptococcus salivarius ATCC 25923 (Streptococcus salivarius): 800 AU/mL | Activity of mutacin against Enterococcus faecium ATCC 19434 [1]: 1600 AU/mL | Activity of mutacin against Enterococcus faecalis ATCC 27235 [2]: 200 AU/mL | Activity of mutacin against Bacillus cereus ATCC 2 (Bacillus cereus ATCC 2): 400 AU/mL | Activity of mutacin against Streptococcus pyogenes ATCC 10389 [3]: 0 AU/mL | Activity of mutacin against Streptococcus suis serotype 2 [4]: 0 AU/mL | Activity of mutacin against Staphylococcus aureus ATCC 6538 [5]: 0 AU/mL | Activity of mutacin against Lactococcus lactis ATCC 11454 [6]: 400 AU/mL | Activity of mutacin against Micrococcus luteus ATCC 272 [7]: 3200 AU/mL | Activity of mutacin against Listeria grayi ATCC 19120 [8]: 200 AU/mL | Activity of mutacin against Pediococcus acidilactici UL5 [9]: 800 AU/mL | Activity of mutacin against Lactobacillus salivarius SMQ 876 [10]: 0 AU/mL | Activity of mutacin against Enterococcus hirae ATCC 8043 [11]: 200 AU/mL | Activity of mutacin against Streptococcus sobrinus ATCC 27352 [12]: 800 AU/mL | Activity of mutacin against Listeria murrayi ATCC 25420 [13]: 200^b AU/mL | Activity of mutacin against Bacillus subtilis ATCC 6051 [14]: 400 AU/mL | Activity of mutacin against Staphylococcus carnosus (Staphylococcus carnosus): 800 AU/mL | Activity of mutacin against Listeria ivanovii HPB 28 (Listeria ivanovii HPB 28): 200 AU/mL | Activity of mutacin against Listeria monocytogenes ATCC 15313 [15]: 200^b AU/mL | Activity ([16]; step: C18 RP-HPLC (purified), spot test on M. luteus ATCC 272, two-fold dilutions): 16000 AU/mL | Specific activity (final, purified mutacin) ([16]; step: C18 RP-HPLC, per mg total protein (BioRad DC assay)): 3.2 × 10^5 AU/mg | Specific activity ([16]; step: Sep-Pak C18, per mg total protein (BioRad DC assay)): 101 AU/mg | Activity ([16]; step: Sep-Pak C18, spot test on M. luteus ATCC 272, two-fold dilutions): 3200 AU/mL | Activity ([16]; step: culture supernatant (crude preparation), spot test on M. luteus ATCC 272, two-fold dilutions in acidified (pH 2) peptone water): 400 AU/mL | Specific activity ([16]; step: culture supernatant, per mg total protein (BioRad DC assay)): 40 AU/mg | Activity of mutacin against L. murrayi HPB 30 (L. murrayi HPB 30): 200^b AU/mL | Activity of mutacin against L. monocytogenes FRDC 88571 [17]: 200^b AU/mL | Activity of mutacin against L. monocytogenes ATCC 700301 ScottA [18]: 200^b AU/mL | Activity of mutacin against L. monocytogenes ATCC 700302 ScottA [19]: 200^b AU/mL | Activity of mutacin against L. monocytogenes FRDC 1039 [20]: 200^b AU/mL | Activity of mutacin against S. aureus ATCC 43300 (S. aureus ATCC 43300): 0 AU/mL | Activity of mutacin against S. aureus ATCC 25923 (S. aureus ATCC 25923): 0 AU/mL | Activity of mutacin against S. aureus R621 (S. aureus R621): 0 AU/mL | Elution gradient at which active fractions were recovered (methanol in 10 mM HCl) [21]: 50%-60% | Viable count of M. luteus ATCC 272 after addition of purified mutacin ([22]; 160 AU/mL (1 mL of 1600 AU/mL, pH 7.0, added to 10 mL early-log culture in TSBYE), 37°C, followed up to 24 h, CFU/mL by plating): dropped to zero | Mode of action (bactericidal or not) ([22]; 160 AU/mL, M. luteus ATCC 272, 24 h incubation): bactericidal
